Measurements published in patent US20220386606A1, “SPECIFICALLY SUBSTITUTED 3-PHENYL-5-SPIROCYCLOPENTYL-3-PYRROLIN-2-ONES AND THEIR USE AS HERBICIDES” (Bayer Aktiengesellschaft, priority 2019, published 2022).

How the values were obtained:
ALOMY [1] = assay: Pre-emergence herbicidal action against ALOMY; format: in vivo, Alopecurus myosuroides; settings: 320 g/ha, scored visually after 3 weeks vs untreated controls
Summary of the method: (§1)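 Sandy loam, wood-fiber pots, seeds covered with soil. Spray onto soil surface: aqueous WP/EC, 600 to 800 L/ha, 0.2% wetting agent. Greenhouse 3 weeks; visual % score vs untreated controls.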

AVEFA [2] = assay: Pre-emergence herbicidal action against AVEFA; format: in vivo, Avena fatua; settings: 320 g/ha, scored visually after 3 weeks vs untreated controls
Summary of the method: as §1

DIGSA [3] = assay: Pre-emergence herbicidal action against DIGSA; format: in vivo, Digitaria sanguinalis; settings: 320 g/ha, scored visually after 3 weeks vs untreated controls
Summary of the method: as §1

ECHCG [4] = assay: Pre-emergence herbicidal action against ECHCG; format: in vivo, Echinochloa crus-galli; settings: 320 g/ha, scored visually after 3 weeks vs untreated controls
Summary of the method: as §1

LOLRI [5] = assay: Pre-emergence herbicidal action against LOLRI (Table 8, titled post-emergence at 320 g/ha); format: in vivo, Lolium rigidum; settings: table stands in the pre-emergence section
Summary of the method: as §1

SETVI [6] = assay: Pre-emergence herbicidal action against SETVI; format: in vivo, Setaria viridis; settings: 320 g/ha, scored visually after 3 weeks vs untreated controls
Summary of the method: as §1

ABUTH [7] = assay: Pre-emergence herbicidal action against ABUTH; format: in vivo, Abutylon threophrasti; settings: 320 g/ha
Summary of the method: as §1

AMARE [8] = assay: Pre-emergence herbicidal action against AMARE; format: in vivo, Amaranthus retroflexus; settings: 320 g/ha
Summary of the method: as §1

POLCO = assay: Pre-emergence herbicidal action against POLCO; format: in vivo, Polygonum convolvulus; settings: 320 g/ha
Summary of the method: as §1

VIOTR = assay: Pre-emergence herbicidal action against VIOTR; format: in vivo, Viola tricolor; settings: 320 g/ha
Summary of the method: as §1

VERPE = assay: Pre-emergence herbicidal action against VERPE; format: in vivo, Veronica persica; settings: 320 g/ha
Summary of the method: as §1

ALOMY [9] = assay: Post-emergence herbicidal action against ALOMY; format: in vivo, Alopecurus myosuroides; settings: 80 g/ha, visual assessment after about 3 weeks
Summary of the method: (§2)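 Herbicidal action is rated visually in percent against untreated controls, where 100% means dead plants and 0% means no difference. Ratings come about 3 weeks after foliar spraying of one-leaf-stage plants with aqueous WP or EC preparations plus 0.2% wetting agent at 600 to 800 l/ha.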

AVEFA [10] = assay: Post-emergence herbicidal action against AVEFA; format: in vivo, Avena fatua; settings: 80 g/ha, visual assessment after about 3 weeks
Summary of the method: as §2

DIGSA [11] = assay: Post-emergence herbicidal action against DIGSA; format: in vivo, Digitaria sanguinalis; settings: 80 g/ha, visual assessment about 3 weeks after treatment vs untreated controls
Summary of the method: as §2

ECHCG [12] = assay: Post-emergence herbicidal action against ECHCG; format: in vivo, Echinochloa crus-galli; settings: 80 g/ha, visual assessment about 3 weeks after treatment vs untreated controls
Summary of the method: as §2

LOLRI [13] = assay: Post-emergence herbicidal action against LOLRI; format: in vivo, Lolium rigidum; settings: 80 g/ha, visual assessment about 3 weeks after treatment vs untreated controls
Summary of the method: as §2

SETVI [14] = assay: Post-emergence herbicidal action against SETVI; format: in vivo, Setaria viridis; settings: 80 g/ha, visual assessment about 3 weeks after treatment vs untreated controls
Summary of the method: as §2

AMARE [15] = assay: Post-emergence herbicidal action against AMARE; format: in vivo, Amaranthus retroflexus; settings: 80 g/ha, visual assessment about 3 weeks after treatment vs untreated controls
Method: Seeds of monocotyledonous and dicotyledonous weed and crop plants are laid out in sandy loam soil in wood-fiber pots, covered with soil and cultivated in a greenhouse under good growth conditions. 2 to 3 weeks after sowing, the test plants are treated at the one-leaf stage. The compounds of the invention, formulated in the form of wettable powders (WP) or as emulsion concentrates (EC), are then sprayed onto the green parts of the plants as aqueous suspension or emulsion at a water application rate equating to 600 to 800 l/ha with addition of 0.2% wetting agent. After the test plants have been left to stand in the greenhouse under optimal growth conditions for about 3 weeks, the action of the preparations is assessed visually in comparison to untreated controls (herbicidal action in percent (%): 100% activity=the plants have died, 0% activity=like control plants).

ABUTH [16] = assay: Post-emergence herbicidal action against ABUTH; format: in vivo, Abutylon threophrasti; settings: 80 g/ha, visual assessment about 3 weeks after treatment vs untreated controls
Summary of the method: as §2

HORMU = assay: Post-emergence herbicidal action against HORMU; format: in vivo, Hordeum murinum; settings: 80 g/ha, visual assessment about 3 weeks after treatment vs untreated controls
Summary of the method: as §2

In the case of `CC#Cc1cc(C)c(C2=C(OC(=O)OCC)C3(CCC(COC)C3)NC2=O)c(Br)c1` (stereo not drawn) [Example P-31], the “Pre-emergence action against ALOMY in %” value (ALOMY [1]) was 100%, the “Pre-emergence action against AVEFA in %” value (AVEFA [2]) was 100% and the “Pre-emergence action against DIGSA in %” value (DIGSA [3]) was 100%. For the same molecule, the “Pre-emergence action against ECHCG in %” value (ECHCG [4]) was 100%, the “Pre-emergence herbicidal action against LOLRI in %” value (LOLRI [5]) was 100% and the “Pre-emergence action against SETVI in %” value (SETVI [6]) was 100%. The “Pre-emergence action against ABUTH in %” value (ABUTH [7]) was 90%, the “Pre-emergence action against AMARE in %” value (AMARE [8]) was 100% and the “Pre-emergence action against POLCO in %” value (POLCO) was 90%. The “Pre-emergence action against VIOTR in %” value (VIOTR) was 100%, the “Pre-emergence action against VERPE in %” value (VERPE) was 90% and the “Post-emergence action against ALOMY in %” value (ALOMY [9]) was 90%. The “Post-emergence action against AVEFA in %” value (AVEFA [10]) was 100%, the “Post-emergence action against DIGSA in %” value (DIGSA [11]) was 100% and the “Post-emergence action against ECHCG in %” value (ECHCG [12]) was 100%. The “Post-emergence action against LOLRI in %” value (LOLRI [13]) was 100%, the “Post-emergence action against SETVI in %” value (SETVI [14]) was 100% and the “Post-emergence action against AMARE in %” value (AMARE [15]) was 80%.

For `CC#Cc1cc(F)c(C2=C(O)C3(CCC(COC)C3)NC2=O)c(OC)c1` (stereo not drawn) [Example I-40], the “Pre-emergence action against ALOMY in %” value (ALOMY [1]) was 100%, the “Pre-emergence action against AVEFA in %” value (AVEFA [2]) was 100% and the “Pre-emergence action against DIGSA in %” value (DIGSA [3]) was 100%. For the same molecule, the “Pre-emergence action against ECHCG in %” value (ECHCG [4]) was 100%, the “Pre-emergence herbicidal action against LOLRI in %” value (LOLRI [5]) was 90% and the “Pre-emergence action against SETVI in %” value (SETVI [6]) was 100%. The “Post-emergence action against ALOMY in %” value (ALOMY [9]) was 100%, the “Post-emergence action against AVEFA in %” value (AVEFA [10]) was 90% and the “Post-emergence action against DIGSA in %” value (DIGSA [11]) was 100%. The “Post-emergence action against ECHCG in %” value (ECHCG [12]) was 100%, the “Post-emergence action against LOLRI in %” value (LOLRI [13]) was 90% and the “Post-emergence action against SETVI in %” value (SETVI [14]) was 100%. For the same molecule, the “Post-emergence action against AMARE in %” value (AMARE [15]) was 80%.

For `CC#Cc1cc(C)c(C2=C(OC(=O)OCC)C3(CCC(COC)C3)NC2=O)c(Cl)c1` (stereo not drawn) [Example P-18], the “Post-emergence action against ALOMY in %” value (ALOMY [9]) was 100%, the “Post-emergence action against AVEFA in %” value (AVEFA [10]) was 100% and the “Post-emergence action against DIGSA in %” value (DIGSA [11]) was 100%. The “Post-emergence action against ECHCG in %” value (ECHCG [12]) was 100%, the “Post-emergence action against LOLRI in %” value (LOLRI [13]) was 100% and the “Post-emergence action against SETVI in %” value (SETVI [14]) was 100%. For the same molecule, the “Post-emergence action against ABUTH in %” value (ABUTH [16]) was 80%, the “Post-emergence action against AMARE in %” value (AMARE [15]) was 80% and the “Post-emergence action against HORMU in %” value (HORMU) was 100%.

With `CC#Cc1cc(F)c(C2=C(OC(=O)OCC)C3(CCC(COC)C3)NC2=O)c(OC)c1` (stereo not drawn) [Example P-62] the “Pre-emergence action against ALOMY in %” value (ALOMY [1]) was 100%, the “Pre-emergence action against AVEFA in %” value (AVEFA [2]) was 90% and the “Pre-emergence action against DIGSA in %” value (DIGSA [3]) was 100%. For the same molecule, the “Pre-emergence action against ECHCG in %” value (ECHCG [4]) was 100%, the “Pre-emergence herbicidal action against LOLRI in %” value (LOLRI [5]) was 100% and the “Pre-emergence action against SETVI in %” value (SETVI [6]) was 100%. For the same molecule, the “Post-emergence action against ALOMY in %” value (ALOMY [9]) was 90%, the “Post-emergence action against AVEFA in %” value (AVEFA [10]) was 90% and the “Post-emergence action against DIGSA in %” value (DIGSA [11]) was 100%. The “Post-emergence action against ECHCG in %” value (ECHCG [12]) was 100%, the “Post-emergence action against LOLRI in %” value (LOLRI [13]) was 90% and the “Post-emergence action against SETVI in %” value (SETVI [14]) was 100%. The “Post-emergence action against ABUTH in %” value (ABUTH [16]) was 80% and the “Post-emergence action against AMARE in %” value (AMARE [15]) was 80%.
